From ChEMBL document CHEMBL1201862, “PubChem BioAssay data set” (2004)
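Protocol summary: plate cells (96-well), add compound at 5 concentrations, incubate 48 h, interpolate endpoints linearly. Here, GI50 denotes the concentration required for 50% inhibition of growth.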 The source made the active and inactive calls. Cut-off read from the data, not from the text of the source: active = GI50 up to about 1.1 µM and inactive = higher.

Key:
Test in all cases: DTP human tumour cell line panel, 48 h
[1] = tested on: M14
[2] = tested on: NCI-H460
[3] = tested on: NCI-H226
[4] = tested on: HL-60
[5] = tested on: MCF7
[6] = tested on: CAKI-1
[7] = tested on: Malme-3M
[8] = tested on: NCI/ADR-RES
[9] = tested on: SK-MEL-28
[10] = tested on: SR
[11] = tested on: SK-MEL-5
[12] = tested on: OVCAR-8
[13] = tested on: PC-3
[14] = tested on: SK-OV-3
[15] = tested on: SW-620
[16] = tested on: OVCAR-4
[17] = tested on: SN12C
[18] = tested on: SF-295
[19] = tested on: TK-10
[20] = tested on: LOX IMVI

| Structure (SMILES) | GI50 [1] | GI50 [2] | GI50 [3] | GI50 [4] | GI50 [5] | GI50 [6] | GI50 [7] | GI50 [8] | GI50 [9] | GI50 [10] | GI50 [11] | GI50 [12] | GI50 [13] | GI50 [14] | GI50 [15] | GI50 [16] | GI50 [17] | GI50 [18] | GI50 [19] | GI50 [20] |
| --- | --- | --- | --- | --- | --- | --- | --- | --- | --- | --- | --- | --- | --- | --- | --- | --- | --- | --- | --- | --- |
| N#C[C@H](c1ccccn1)c1nc2ccccc2nc1Cl | > 100 µM (inactive) | > 100 µM (inactive) | > 100 µM (inactive) | 74.6 µM (inactive) | > 100 µM (inactive) | > 100 µM (inactive) | > 100 µM (inactive) | > 100 µM (inactive) | > 100 µM (inactive) | > 100 µM (inactive) | > 100 µM (inactive) | > 100 µM (inactive) | > 100 µM (inactive) | > 100 µM (inactive) | > 100 µM (inactive) | > 100 µM (inactive) | > 100 µM (inactive) | > 100 µM (inactive) |  |  |
| Cc1cc(S(=O)(=O)NC2=NCc3nc4ccccc4n32)c(S)cc1Cl | 23.7 µM (inactive) | 27.7 µM (inactive) | 20 µM (inactive) | 24.2 µM (inactive) | 30.3 µM (inactive) | 35.2 µM (inactive) | 22.5 µM (inactive) | 19.6 µM (inactive) | 30.5 µM (inactive) | 20.9 µM (inactive) | 16.9 µM (inactive) | 28.1 µM (inactive) | 22.2 µM (inactive) |  | 47.6 µM (inactive) | 29.4 µM (inactive) | 23.5 µM (inactive) | 19.9 µM (inactive) | 38.8 µM (inactive) | 18.4 µM (inactive) |
| N#Cc1c(-c2ccccc2)c(CN2CCCCC2)c(=O)n2c1[nH]c1ccccc12 | 30.1 µM (inactive) | 25.9 µM (inactive) | > 100 µM (inactive) |  | 13.2 µM (inactive) | 26.3 µM (inactive) | 62.2 µM (inactive) | 43.2 µM (inactive) | 69.5 µM (inactive) |  | 5.05 µM (inactive) | 30.3 µM (inactive) | 34.9 µM (inactive) | 71 µM (inactive) | 54.3 µM (inactive) | 46.3 µM (inactive) | 25.1 µM (inactive) | 36.8 µM (inactive) | 28.4 µM (inactive) | 20.7 µM (inactive) |
| Cc1cc2nc3c(C(O)CO)nn(-c4ccccc4)c3nc2cc1C (stereo not drawn) | 31.3 µM (inactive) | 12.7 µM (inactive) | 30.6 µM (inactive) | 21.6 µM (inactive) | 20.2 µM (inactive) | 15.8 µM (inactive) |  | 16.1 µM (inactive) | 20.7 µM (inactive) | 6.65 µM (inactive) | 30.9 µM (inactive) | 23.2 µM (inactive) | 14.4 µM (inactive) |  | 20.5 µM (inactive) | 20.2 µM (inactive) | 13.8 µM (inactive) | 15.7 µM (inactive) | 14 µM (inactive) | 20.5 µM (inactive) |
| Cc1ccc(S(=O)(=O)NCCCSCCN)cc1 | > 100 µM (inactive) | > 100 µM (inactive) | > 100 µM (inactive) | > 100 µM (inactive) | > 100 µM (inactive) |  |  | > 100 µM (inactive) | > 100 µM (inactive) | > 100 µM (inactive) | 22 µM (inactive) | > 100 µM (inactive) | > 100 µM (inactive) | > 100 µM (inactive) | > 100 µM (inactive) | > 100 µM (inactive) | > 100 µM (inactive) | > 100 µM (inactive) | > 100 µM (inactive) | < 0.01 µM (active) |
| CC(C)=CCC/C(C)=C/CC/C(C)=C/CSc1ccc(Cl)cc1C(=O)O | 19.6 µM (inactive) | 18.7 µM (inactive) | 17.4 µM (inactive) | 22.2 µM (inactive) | 17.3 µM (inactive) | 25.1 µM (inactive) | 19.2 µM (inactive) | > 10 µM (inactive) | 17.3 µM (inactive) |  | 23.4 µM (inactive) | 20 µM (inactive) | 16.2 µM (inactive) | 17.3 µM (inactive) | 22 µM (inactive) | 27.7 µM (inactive) | 26.3 µM (inactive) | 17.4 µM (inactive) | 19.2 µM (inactive) | 18.1 µM (inactive) |
| C[N+](C)(C)/C=N\c1cccc2c1CCCC2 | > 100 µM (inactive) |  | 58.2 µM (inactive) | 0.0885 µM (active) | > 100 µM (inactive) | > 100 µM (inactive) | > 100 µM (inactive) | > 100 µM (inactive) | > 100 µM (inactive) | 16 µM (inactive) | 41.2 µM (inactive) | > 100 µM (inactive) | 39.8 µM (inactive) | > 100 µM (inactive) |  | > 100 µM (inactive) | > 100 µM (inactive) | > 100 µM (inactive) | > 100 µM (inactive) | 55.3 µM (inactive) |
